Laboratory results: patent US12404265B2, “Substituted pyridine derivatives as SARM1 inhibitors” (Nura Bio, Inc., priority 2020, dated 2025)

biological target: T1, human SARM1(50-724) (Homo sapiens, UniProt Q6SZW1); assay: SARM1 NADase biochemical assay (HPLC of NAD and NAM); settings: 40 nM human SARM1(50-724), 0.3 mM NMN, 20 μM NAD, 60 minutes room temperature; dose-response from 100 μM, 1:3 dilution
T1 construct: 40 nM human SARM1(50-724)
T1 sequence (Q6SZW1 50-724): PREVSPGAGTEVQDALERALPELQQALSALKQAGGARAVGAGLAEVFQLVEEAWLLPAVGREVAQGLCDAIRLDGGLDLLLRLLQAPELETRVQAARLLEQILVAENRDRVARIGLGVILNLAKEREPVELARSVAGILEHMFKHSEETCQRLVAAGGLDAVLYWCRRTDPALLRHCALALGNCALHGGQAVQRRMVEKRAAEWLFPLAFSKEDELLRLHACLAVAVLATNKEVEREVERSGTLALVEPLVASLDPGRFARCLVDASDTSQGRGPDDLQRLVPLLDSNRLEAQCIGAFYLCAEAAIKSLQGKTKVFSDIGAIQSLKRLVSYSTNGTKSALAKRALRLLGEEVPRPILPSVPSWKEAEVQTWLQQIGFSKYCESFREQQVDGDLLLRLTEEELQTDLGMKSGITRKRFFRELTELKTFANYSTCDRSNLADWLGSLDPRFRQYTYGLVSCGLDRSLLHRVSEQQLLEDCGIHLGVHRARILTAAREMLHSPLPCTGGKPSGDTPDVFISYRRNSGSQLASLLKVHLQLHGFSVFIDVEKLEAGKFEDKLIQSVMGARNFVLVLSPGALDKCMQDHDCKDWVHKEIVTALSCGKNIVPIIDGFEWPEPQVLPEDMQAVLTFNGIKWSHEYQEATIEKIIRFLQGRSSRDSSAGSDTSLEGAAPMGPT
Procedure: Each reaction was run at a volume of 20 μL containing 50 μM compound (dissolved in DMSO; final concentration of DMSO is 1% v/v), 40 nM human SARM1(50-724), 0.3 mM NMN, 20 μM NAD, 1 mM TCEP, 25 mM HEPES pH 7.4, 10 mM KCl and 10 mM MgCl2. The reaction was incubated at room temperature for 60 minutes and quenched with 20 μL of 0.4% formic acid. The samples were run on Agilent HPLC 1260 Infinity II with Synergi 2.5 μM Fusion-RP 100 Å (100×3.0 mm) LC column from Phenomenex. Total run time for each sample was 4 minutes. The run was isocratic with 1.5% methanol in 40 mM ammonium acetate pH 6.0. Samples were run at a flow rate of 0.8 mL/min at 55° C. Peak areas of NAD and NAM were determined using OpenLAB CDS (Chem Station edition) software. For dose-response, the compound was diluted serially 1:3 in DMSO and added to the reaction starting at a final compound concentration of 100 μM in 1% DMSO.

| Structure (SMILES) | IC50 [nM] |
| --- | --- |
| Cc1c(-c2ccncc2)n[nH]c1NC(=O)C[S+]([O-])c1ccc(Cl)cc1 (stereo not shown) [Example 120, 2-((4-chlorophenyl)sulfinyl)-N-(4-methyl-3-(pyridin-4-yl)-1H-pyrazol-5-yl)acetamide] | < 1000 |
| O=C(CCc1cc(F)c(Cl)c(F)c1)Nc1cnn(-c2ccncc2)c1Br [Example 127, N-[5-Bromo-1-(pyridin-4-yl)-1H-pyrazol-4-yl]-3-(4-chloro-3,5-difluorophenyl)propanamide] | < 1000 |
| Cc1c(-c2ccncc2)n[nH]c1NC(=O)CCc1cnc(F)nc1 [Example 60, 3-(2-Fluoropyrimidin-5-yl)-N-(4-methyl-3-(pyridin-4-yl)-1H-pyrazol-5-yl)propanamide] | < 1000 |
| Cc1c(-c2ccncc2)n[nH]c1NC(=O)CCc1ccc2ccccc2c1 [Example 28, N-(4-Methyl-3-(pyridin-4-yl)-1H-pyrazol-5-yl)-3-(naphthalen-2-yl)propanamide] | 1000 to 10000 |
| O=C(NCc1ccc(Cl)cc1)Nc1cc(-c2ccncc2)n[nH]1 [Example 165, 1-(4-Chlorobenzyl)-3-(3-(pyridin-4-yl)-1H-pyrazol-5-yl)urea] | < 1000 |
| O=C(NCc1cc(F)c(F)c(F)c1)Nc1[nH]nc(-c2ccncc2)c1Cl [Example 145, 1-(4-Chloro-3-(pyridin-4-yl)-1H-pyrazol-5-yl)-3-(3,4,5-trifluorobenzyl)urea] | < 1000 |
| Cc1c(-c2ccncc2)n[nH]c1NC(=O)CCn1cc(Cl)cn1 [Example 77, 3-(4-Chloro-1H-pyrazol-1-yl)-N-(4-methyl-3-(pyridin-4-yl)-1H-pyrazol-5-yl)propenamide] | 1000 to 10000 |
| Cc1c(-c2ccncc2)n[nH]c1NC(=O)C(F)Cc1cc(F)c(Cl)c(F)c1 (racemic) [Example 71, (rac)-3-(4-Chloro-3,5-difluorophenyl)-2-fluoro-N-(4-methyl-3-(pyridin-4-yl)-1H-pyrazol-5-yl)propanamide] | < 1000 |
| Cc1cnccc1-c1n[nH]c(NC(=O)CCc2cc(F)c(Cl)c(F)c2)c1C [Example 111, 3-(4-Chloro-3,5-difluorophenyl)-N-(4-methyl-3-(3-methylpyridin-4-yl)-1H-pyrazol-5-yl)propanamide] | < 1000 |
| CCC(=O)N(C(=O)CCc1ccc(Cl)cc1)c1[nH]nc(-c2ccncc2)c1C [Example 2, 3-(4-Chlorophenyl)-N-(4-methyl-3-(pyridin-4-yl)-1H-pyrazol-5-yl)-N-propionylproanamide] | 1000 to 10000 |
| Cc1c(-c2ccncc2)n[nH]c1NC(=O)CCc1ccc(C#N)c(F)c1 [Example 53, 3-(4-Cyano-3-fluorophenyl)-N-(4-methyl-3-(pyridin-4-yl)-1H-pyrazol-5-yl)propanamide] | < 1000 |
| Cc1c(-c2ccncc2)n[nH]c1NC(=O)CCc1cc(Cl)no1 [Example 78, 3-(3-Chloroisoxazol-5-yl)-N-(4-methyl-3-(pyridin-4-yl)-1H-pyrazol-5-yl)propanamide] | < 1000 |
| O=C(NCc1cc(F)c(Cl)c(F)c1)Nc1cc(-c2ccncc2)n[nH]1 [Example 163, 1-(4-Chloro-3,5-difluorobenzyl)-3-(3-(pyridin-4-yl)-1H-pyrazol-5-yl)urea] | < 1000 |
| O=C(CCc1cc(F)c(F)c(F)c1)Nc1cc(-c2ccncc2)n[nH]1 [Example 102, N-(3-(Pyridin-4-yl)-1H-pyrazol-5-yl)-3-(3,4,5-trifluorophenyl)propanamide] | < 1000 |
| Cc1c(-c2ccncc2)n[nH]c1NC(=O)CCc1ccc(C(F)(F)F)cc1 [Example 32, N-(4-Methyl-3-(pyridin-4-yl)-1H-pyrazol-5-yl)-3-(4-(trifluoromethyl)phenyl)propanamide] | < 1000 |
| Cc1c(-c2ccncc2)n[nH]c1NC(=O)CNc1ccc(Cl)cc1 [Example 79, 2-((4-Chlorophenyl)amino)-N-(4-methyl-3-(pyridin-4-yl)-1H-pyrazol-5-yl)acetamide] | < 1000 |
